This is an account of results in patent US12203909B2, “Compositions for conjugating a sulfonephthalein dye to a substrate” (priority 2018, dated 2025).

Read-outs that look alike come from different tables or passages of the source.

Data set [1] can be described thus: UV-Vis spectrum of HPTS as a function of pH, pH response range. Type of data set: physicochemical. The conditions noted are these: RGB detectors with maximum sensitivity at 460 nm/520 nm/630 nm. The text has this: An example of modification of 8-hydroxypyrene-1,3,6-trisulfonic acid as its sodium salt is shown below. The 8-hydroxypyrene-1,3,6-trisulfonic acid can also be modified as a salt of a cation other than sodium, such as potassium or ammonium. This compound is suitable as a pH sensitive probe for pH range of 7.0-8.0 for red, green and blue combination photodiode (RGB) detectors with maximum sensitivity at 460 nm/520 nm/630 nm.
The UV-Vis spectrum of HPTS as a function of pH is shown in FIG. 7, while the pH response range for this dye at 454 nm is shown in FIG. 8.

Data set [2] is described as follows: SPD derivative UV-Vis spectral and chemical properties (Table 1). In kind it is physicochemical. The following applies: for λ1, nm (SPD^−1 form): pH sensitive wavelength of SPD^−1. From the text: The HA and A^− concentrations are related by the Henderson-Hasselbalch equation: pH=pKa+log[A^−]/[H—A] where Ka is the acid dissociation constant, pKa is −log Ka, and [A^−] and [HA] are the concentrations of dissociated and undissociated dye acid form, respectively.
Such compounds are commonly used as pH sensitive indicators for determination of pH of aqueous solutions. […] The structure of suitable SPDs and their conjugate bases are shown generically below, and their spectral and chemical properties are reported in Table 1.
Unmodified SPDs have been used for the preparation of pH sensitive indicators adsorbed on the surface of suitable polymeric materials, such as cellulose based materials. […] In general, substitution with electron acceptor substituents (e.g., Cl, Br in the C2/C5 positions) results in a pKa shift to a lower pH range relative to PR, and substitution with electron donor substituents (e.g., C1-C3 alkyl in the C2, C4 and C5 positions) results in a pKa shift to a higher pH range. […] Examples of such SPDs include bromocresol purple and bromothymol blue.
Measurement of absorbance at specific wavelengths allows for the determination of the concentrations of the acidic and basic forms of the dye. These wavelengths are typically selected based upon the absorbance maxima for each specific dye, although other wavelengths can be employed albeit with diminished sensitivity.

For data set [3] the following is noted: SPD^−1/SPD^−2 transition, cited from earlier work.
[4] abbreviates: pH sensitive wavelength of SPD^−2.

Take `O=S(=O)(O)c1cc(O)c2ccc3c(S(=O)(=O)O)cc(S(=O)(=O)O)c4ccc1c2c34` [8-hydroxypyrene-1,3,6-trisulfonic acid]: the “pH range for which suitable as pH sensitive probe” value in data set [1] was 7.0-8.0.

For `Cc1c(C2(c3cc(Br)c(O)c(Br)c3C)OS(=O)(=O)c3ccccc32)cc(Br)c(O)c1Br` [Bromocresol Green (BrCrG), Bromocresol Green], in data set [2], the “λ1, nm (SPD^−1 form)” value was 432 nm. In addition, the “λ2, nm (SPD^−2 form)” value in data set [2] (setting [4]) is about 614 nm. Further, in data set [3], the “pKa* SPD^−1/SPD^−2” value is 4.7.

Take `Cc1cc(C2(c3cc(C)c(O)c(Br)c3)OS(=O)(=O)c3ccccc32)cc(Br)c1O` [Bromocresol Purple (BrCrP), Bromocresol Purple]: the “λ1, nm (SPD^−1 form)” value in data set [2] is 432 nm. In addition, the “λ2, nm (SPD^−2 form)” value in data set [2] (setting [4]) is 589 nm. Also, in data set [3], the “pKa* SPD^−1/SPD^−2” value is recorded as 6.3.

On to `O=S1(=O)OC(c2cc(Br)c(O)c(Br)c2)(c2cc(Br)c(O)c(Br)c2)c2ccccc21` [Bromophenol Blue], for which, in data set [2], the “λ1, nm (SPD^−1 form)” value came out at 436 nm. In addition, the “λ2, nm (SPD^−2 form)” value in data set [2] (setting [4]) is 591 nm. In addition, the “pKa* SPD^−1/SPD^−2” value in data set [3] is 4.1.

With `Cc1c(C2(c3cc(C(C)C)c(O)c(Br)c3C)OS(=O)(=O)c3ccccc32)cc(C(C)C)c(O)c1Br` [Bromothymol Blue], the “λ1, nm (SPD^−1 form)” value in data set [2] was 427 nm. For the same compound, in data set [2] (setting [4]), the “λ2, nm (SPD^−2 form)” value is listed as 602 nm. The “pKa* SPD^−1/SPD^−2” value in data set [3] is recorded as 7.1.

Turning to `O=S1(=O)OC(c2ccc(O)c(Cl)c2)(c2ccc(O)c(Cl)c2)c2ccccc21` [Chlorophenol Red (ClPR), Chlorophenol Red], the “λ1, nm (SPD^−1 form)” value in data set [2] is reported as 436 nm. Besides, in data set [2] (setting [4]), the “λ2, nm (SPD^−2 form)” value is 575 nm. For the same compound, in data set [3], the “pKa* SPD^−1/SPD^−2” value was 6.7.

With `Cc1cc(C2(c3ccc(O)c(C)c3)OS(=O)(=O)c3ccccc32)ccc1O` [Cresol Red (CR), Cresol Red], the “λ1, nm (SPD^−1 form)” value in data set [2] is 430 nm.

On to `Cc1c(C2(c3cc(C(C)C)c(O)c(CN(CC(=O)[O-])CC(=O)[O-])c3C)OS(=O)(=O)c3ccccc32)cc(C(C)C)c(O)c1CN(CC(=O)[O-])CC(=O)[O-].[Na+].[Na+].[Na+].[Na+]` [Methylthymol Blue], for which the “λ1, nm (SPD^−1 form)” value in data set [2] is reported as 442 nm. Further, the “λ2, nm (SPD^−2 form)” value in data set [2] (setting [4]) was 614 nm. The “pKa* SPD^−1/SPD^−2” value in data set [3] is on record as 6.0-13.0.

By pKa is commonly meant the negative logarithm of the acid dissociation constant. Read a high pKa as a weaker acid or stronger base. Take `O=S1(=O)OC(c2ccc(O)cc2)(c2ccc(O)cc2)c2ccccc21` [Phenol Red (PR), Phenol Red]: the “λ1, nm (SPD^−1 form)” value in data set [2] stood at 431 nm. The “λ2, nm (SPD^−2 form)” value in data set [2] (setting [4]) is recorded as 557 nm; in data set [2] (pH sensitive wavelength of SPD^−2, listed as PR), “approximately 557 nm”. This compound gave a pKa (Table 3, PR derivatives) of 7.4. Besides, under “Table 3, PR derivatives”, the “λ1, nm” value is on record as 431 nm. Besides, the “λ2, nm” value (Table 3, PR derivatives) came out at 557 nm. The “λ1^pH 6/pH 9 Abs ratio” value (calculated as OD 430 nm pH 6.0/OD 430 nm pH 9.0) is 5.1. The entries for the “pKa* SPD^−1/SPD^−2” value in data set [3] and in data set [3] (listed as Phenol red (PR)) were 7.4 and “approximately 7.4”, respectively.

For `Cc1cc(O)c(C(C)C)cc1C1(c2cc(C(C)C)c(O)cc2C)OS(=O)(=O)c2ccccc21` [Thymol Blue], the “λ1, nm (SPD^−1 form)” value in data set [2] came out at 432 nm. Moreover, the “λ2, nm (SPD^−2 form)” value in data set [2] (setting [4]) is recorded as 595 nm. The “pKa* SPD^−1/SPD^−2” value in data set [3] is recorded as 8.9.

As to `Cc1cc(C2(c3cc(C)c(O)cc3C)OS(=O)(=O)c3ccccc32)c(C)cc1O` [Xylenol Blue], the “λ1, nm (SPD^−1 form)” value in data set [2] came to 436 nm. Further, the “λ2, nm (SPD^−2 form)” value in data set [2] (setting [4]) is recorded as 594 nm. In addition, the “pKa* SPD^−1/SPD^−2” value in data set [3] is recorded as 8.5.

On to `Cc1cc(C2(c3cc(C)c(O)c(CN(CC(=O)O)CC(=O)O)c3)OS(=O)(=O)c3ccccc32)cc(CN(CC(=O)O)CC(=O)O)c1O` [Xylenol Orange], for which the “λ1, nm (SPD^−1 form)” value in data set [2] is recorded as 436 nm. Moreover, the “λ2, nm (SPD^−2 form)” value in data set [2] (setting [4]) stood at 583 nm. Also, the “pKa* SPD^−1/SPD^−2” value in data set [3] is given as 6.0-11.7.

For `Cc1cc(O)ccc1C1(c2ccc(O)cc2C)OS(=O)(=O)c2ccccc21` [m-Cresol Purple (mCrP), m-Cresol Purple], in data set [2], the “λ1, nm (SPD^−1 form)” value is 432 nm. Further, in data set [2] (setting [4]), the “λ2, nm (SPD^−2 form)” value was 578 nm. Also, the “pKa* SPD^−1/SPD^−2” value in data set [3] was 8.3.
